Ki data for 8 compounds are collected here from patent publication US8476253B2, “Amide derivative” (Daiichi Sankyo Company, Limited, priority 2009, dated 2013).

One assay addresses T1, substance P receptor (Cavia porcellus, UniProt P30547).
T1 construct: A preparation of a crude lung membrane sample was prepared; from tissue; host or cells: guinea-pig lung (crude membrane sample)
Put plainly: Test for binding to guinea-pig substance P receptor (crude lung membrane sample). The note with it: crude guinea-pig lung membrane sample, [3H]substance P; Ki from IC50 and Kd; read-out: Ki. The method, then:
A preparation of a crude lung membrane sample was prepared, and a test for binding of a test substance to the sample was performed according to the method described in EP0336230A2.
The binding effect of the test substance to a substance P receptor was calculated as an affinity (Ki) of the test substance for the substance P receptor from a 50% binding concentration (IC50) and an affinity (Kd) of [^3H]substance P for the substance P receptor.

The target in another assay is T2, human M3 receptor (Homo sapiens, UniProt P20309).
T2 construct: expressed in transfected cells; host or cells: CHO cells
Put plainly: Test for binding to human M3 receptor. The procedure:
A solution of cryopreserved CHO cells expressing human M3 receptor was diluted with a buffer (50 mM tris-hydrochloride containing 0.5 mM of EDTA, pH 7.4) to obtain 5.0×10^5 of cells/mL and used as a crude membrane sample.
[N-methyl-^3H]-(−)-Scopolamine methyl chloride (GE Healthcare Japan Corporation) was diluted with 50 mM of tris-hydrochloride containing 0.5 mM of EDTA (pH 7.4), a test substance and 250 μL of the crude membrane sample solution were added to 250 μL of the mixture, and the mixture was incubated at room temperature for 60 minutes. […] The glass fiber filter paper was pretreated with a 0.1% polyethylenimine solution for 4 hours or longer to minimize non-specific binding. The filter collecting membrane components was transferred to a small-size plastic vial containing 3 mL of Pico-Fluor, and the radioactivity was measured with a liquid scintillation counter (Tri-Carb 2900TR or 2300TR; Perkin Elmer).
The effect of binding to the M3 receptor was calculated as the affinity (Ki) of the test substance for the M3 receptor from a 50% binding dose (IC50) and the affinity (Kd) of [N-methyl-^3H]-(−)-Scopolamine methyl chloride for the M3 receptor.

Another assay addresses T3, human NK2 receptor (Homo sapiens, UniProt P21452).
T3 construct: expressed in transfected cells; host or cells: COS cells
T3 sequence (P21452 1-398): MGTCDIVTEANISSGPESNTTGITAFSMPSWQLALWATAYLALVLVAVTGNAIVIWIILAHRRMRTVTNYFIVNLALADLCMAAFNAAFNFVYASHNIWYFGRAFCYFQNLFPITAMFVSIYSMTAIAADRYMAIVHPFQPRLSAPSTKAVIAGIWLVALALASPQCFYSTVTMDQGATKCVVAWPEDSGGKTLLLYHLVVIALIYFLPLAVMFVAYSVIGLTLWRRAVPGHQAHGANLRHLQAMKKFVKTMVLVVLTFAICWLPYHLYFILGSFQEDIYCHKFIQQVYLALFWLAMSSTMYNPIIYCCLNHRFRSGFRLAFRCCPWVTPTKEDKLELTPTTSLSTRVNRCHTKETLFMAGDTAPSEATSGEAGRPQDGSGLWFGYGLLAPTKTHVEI
Put plainly: Test for binding to human NK2 receptor. The method, then: A solution of cryopreserved COS cells expressing human NK2 receptor was diluted with a buffer (50 mM tris-hydrochloride containing 0.04% of bovine serum albumin [BSA], pH 7.4) to obtain a concentration of 5.0×10^5 cells/mL and used as a crude membrane sample.
[^3H]SR 48968 (GE Healthcare Japan Corporation) was diluted with a mixture of 50 mM of tris-hydrochloride (pH 7.4), 6 mM of manganese chloride tetrahydrate, 800 μg/mL of BSA, 8 μg/mL of chymostatin, 8 μg/mL of leupeptin, 80 μg/mL of bacitracin, and 20 μg/mL of phosphoramidon. […] After the reaction, the membrane components were collected on a GF/B glass fiber filter paper (Whatman; Biomedical Research and Development Laboratories, Inc.) with an automated filtration system (Brandel; Biomedical Research and Development Laboratories, Inc.). The glass fiber filter paper was pretreated with a 0.1% polyethylenimine solution for 4 hours or longer to minimize non-specific binding. The filter collecting the membrane components was transferred to a small-size plastic vial containing 3 mL of Pico-Fluor, and the radioactivity was measured with a liquid scintillation counter (Tri-Carb 2900TR or 2300TR; Perkin Elmer).
The effect of binding to the NK2 receptor was calculated as the affinity (Ki) of the test substance for the NK2 receptor from a 50% binding dose (IC50) and the affinity (Kd) of [^3H]SR 48968 for the NK2 receptor.

[1] abbreviates: CHO cells expressing human M3 receptor, [N-methyl-3H]-(-)-Scopolamine methyl chloride 0.5 nM, Ki from IC50 and Kd, read-out: Ki.
[2] abbreviates: COS cells expressing human NK2 receptor, [3H]SR 48968 1 nM, Ki from IC50 and Kd, read-out: Ki.

Where a name gives a salt, the structure may show the parent alone. Read-outs that look alike come from different tables or passages of the source.

T2 sequence (P20309 whole entry): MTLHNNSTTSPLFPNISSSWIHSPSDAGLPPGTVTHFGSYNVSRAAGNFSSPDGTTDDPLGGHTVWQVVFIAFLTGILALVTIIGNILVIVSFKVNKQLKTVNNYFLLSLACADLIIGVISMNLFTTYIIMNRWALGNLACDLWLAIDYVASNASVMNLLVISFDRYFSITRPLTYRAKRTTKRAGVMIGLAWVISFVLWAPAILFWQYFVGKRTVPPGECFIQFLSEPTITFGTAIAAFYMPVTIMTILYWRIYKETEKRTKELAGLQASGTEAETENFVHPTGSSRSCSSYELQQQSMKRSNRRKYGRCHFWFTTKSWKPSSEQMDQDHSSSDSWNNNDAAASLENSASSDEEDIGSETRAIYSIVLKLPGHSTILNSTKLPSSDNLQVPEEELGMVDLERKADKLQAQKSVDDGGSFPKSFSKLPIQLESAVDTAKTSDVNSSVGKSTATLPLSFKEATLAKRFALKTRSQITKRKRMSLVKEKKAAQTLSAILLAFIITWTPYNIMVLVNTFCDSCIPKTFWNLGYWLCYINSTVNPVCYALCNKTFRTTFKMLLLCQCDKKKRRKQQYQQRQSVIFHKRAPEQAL
T1 sequence (P30547 whole entry): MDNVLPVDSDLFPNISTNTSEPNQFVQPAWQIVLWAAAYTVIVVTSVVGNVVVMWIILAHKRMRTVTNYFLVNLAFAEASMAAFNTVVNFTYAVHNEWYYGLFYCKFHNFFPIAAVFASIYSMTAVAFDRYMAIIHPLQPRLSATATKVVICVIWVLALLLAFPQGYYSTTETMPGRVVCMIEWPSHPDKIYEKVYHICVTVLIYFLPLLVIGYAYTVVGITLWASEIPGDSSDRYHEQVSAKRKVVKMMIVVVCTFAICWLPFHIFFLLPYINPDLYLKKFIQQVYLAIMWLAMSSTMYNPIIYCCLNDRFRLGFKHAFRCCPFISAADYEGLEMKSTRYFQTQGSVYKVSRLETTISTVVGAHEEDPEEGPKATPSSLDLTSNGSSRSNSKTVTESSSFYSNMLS

By Ki is commonly meant the dissociation constant of the complex between target and ligand, obtained from inhibition or displacement. `CN(CCN1CCC(OC(=O)Nc2ccccc2-c2ccccc2)CC1)C(=O)CCCCCN(C)c1ccc(C(=O)N(C)CCCN(C)C(=O)CO[C@H]2Cc3ccccc3C23CCN(CC[C@@]2(c4ccc(F)cc4)CN(C(=O)c4cc(C(F)(F)F)cc(C(F)(F)F)c4)CO2)CC3)s1` [Example 8, 1-{2-[{6-[{5-[{3-[({[(2S)-1′-{2-[(5R)-3-[3,5-Bis(trifluoromethyl)benzoyl]-5-(4-fluorophenyl)-1,3-oxazolidin-5-yl]ethyl}-2,3-dihydrospiro[indene-1,4′-piperidin]-2-yl]oxy}acetyl)(methyl)amino]propyl}(methyl)carbamoyl]-2-thienyl}(methyl)amino]hexanoyl}(methyl)amino]ethyl}piperidin-4-yl biphenyl-2-ylcarbamate]: the inhibition constant Ki at substance P receptor is 2.6 nM; at human M3 receptor (setting [1]) it was 1.9 nM; at human NK2 receptor (setting [2]), 0.38 nM.

Regarding `CN(CCN1CCC(OC(=O)Nc2ccccc2-c2ccccc2)CC1)C(=O)CCCCCNCc1ccc(C(=O)N(C)CCCN(C)C(=O)CO[C@H]2Cc3ccccc3C23CCN(CC[C@@]2(c4ccc(F)cc4)CN(C(=O)c4cc(C(F)(F)F)cc(C(F)(F)F)c4)CO2)CC3)nc1` [Example 7, 1-{2-[{6-[({6-[{3-[({[(2S)-1′-{2-[(5R)-3-[3,5-Bis(trifluoromethyl)benzoyl]-5-(4-fluorophenyl)-1,3-oxazolidin-5-yl]ethyl}-2,3-dihydrospiro[indene-1,4′-piperidin]-2-yl]oxy}acetyl)(methy)amino]propyl}(methyl)carbamoyl]pyridin-3-yl}methyl)amino]hexanoyl}(methyl)amino]ethyl}piperidin-4-yl biphenyl-2-ylcarbamate], the results for the Ki on substance P receptor, at human M3 receptor (setting [1]) and on human NK2 receptor (setting [2]) were 0.57 nM, 0.9 nM and 0.17 nM, respectively.

Consider `CN(CCN1CCC(OC(=O)Nc2ccccc2-c2ccccc2)CC1)C(=O)CCCCCCNc1ccc(C(=O)N(C)CCCN(C)C(=O)CO[C@H]2Cc3ccccc3C23CCN(CC[C@@]2(c4ccc(F)cc4)CN(C(=O)c4cc(C(F)(F)F)cc(C(F)(F)F)c4)CO2)CC3)cc1.Cl.Cl.Cl` [Example 39, 1-(2-{[7-({4-[{3-[({[(2S)-1′-{2-[(5R)-3-[3,5-Bis(trifluoromethyl)benzoyl]-5-(4-fluorophenyl)-1,3-oxazolidin-5-yl]ethyl}-2,3-dihydrospiro[indene-1,4′-piperidin]-2-yl]oxy}acetyl)(methyl)amino]propyl}methyl)carbamoyl]phenyl}amino)heptanoyl](methyl)amino}ethyl)piperidin-4-yl biphenyl-2-ylcarbamate trihydrochloride], for which the Ki at substance P receptor was determined as 1.2 nM; on human M3 receptor (setting [1]) it was 1.4 nM; on human NK2 receptor (setting [2]) it was 0.82 nM.

For `Cc1nc(NCCCCCC(=O)N(C)CCN2CCC(OC(=O)Nc3ccccc3-c3ccccc3)CC2)sc1C(=O)N(C)CCN(C)C(=O)CO[C@H]1Cc2ccccc2C12CCN(CC[C@@]1(c3ccc(F)cc3)CN(C(=O)c3cc(C(F)(F)F)cc(C(F)(F)F)c3)CO1)CC2` [Example 107, 1-(2-{[6-({5-[{2-[({[(2S)-1′-{2-[(5R)-3-[3,5-Bis(trifluoromethyl)benzoyl]-5-(4-fluorophenyl)-1,3-oxazolidin-5-yl]ethyl}-2,3-dihydrospiro[indene-1,4′-piperidin]-2-yl]oxy}acetyl)(methyl)amino]ethyl}(methyl)carbamoyl]-4-methyl-1,3-thiazol-2-yl}amino)hexanoyl](methyl)amino}ethyl)piperidin-4-yl biphenyl-2-ylcarbamate trihydrochloride], the figures for the Ki on substance P receptor, on human M3 receptor and on human NK2 receptor were 1.2 nM, 1.4 nM and 0.59 nM, respectively.

Regarding `CN(CCN1CCC(OC(=O)Nc2ccccc2-c2ccccc2)CC1)C(=O)CCCCCNCc1ccc(C(=O)N(C)CCCN(C)C(=O)CO[C@H]2Cc3ccccc3C23CCN(CC[C@@]2(c4ccc(F)cc4)CN(C(=O)c4cc(C(F)(F)F)cc(C(F)(F)F)c4)CO2)CC3)cc1` [Example 75, 1-(2-{[6-({4-[{3-[({[(2S)-1-{2-[(5R)-3-[3,5-Bis(trifluoromethyl)benzoyl]-5-(4-fluorophenyl)-1,3-oxazolidin-5-yl]ethyl}-2,3-dihydrospiro[indene-1,4′-piperidin]-2-yl]oxy}acetyl)(methyl)amino]propyl}(methyl)carbamoyl]benzyl}amino)hexanoyl](methyl)amino}ethyl)piperidin-4-yl biphenyl-2-ylcarbamate], the Ki turned out to be 1 nM at substance P receptor, 0.52 nM at human M3 receptor (setting [1]) and 0.25 nM on human NK2 receptor (setting [2]).

`CN(CCN1CCC(OC(=O)Nc2ccccc2-c2ccccc2)CC1)C(=O)CCCCCNc1ccc(NC(=O)CCCN(C)C(=O)CO[C@H]2Cc3ccccc3C23CCN(CC[C@@]2(c4ccc(F)cc4)CN(C(=O)c4cc(C(F)(F)F)cc(C(F)(F)F)c4)CO2)CC3)cc1` [Example 82, 1-{2-[(6-{[4-({4-[({[(2S)-1′-{2-[(5R)-3-[3,5-Bis(trifluoromethyl)benzoyl]-5-(4-fluorophenyl)-1,3-oxazolidin-5-yl]ethyl}-2,3-dihydrospiro[indene-1,4′-piperidin]-2-yl]oxy}acetyl)(methyl)amino]butanoyl}amino)phenyl]amino}hexanoyl)(methyl)amino]ethyl}piperidin-4-yl biphenyl-2-ylcarbamate trihydrochloride]: the inhibitory constant (Ki) at substance P receptor worked out at 4.5 nM; on human M3 receptor, 1.6 nM; at human NK2 receptor, 0.6 nM.

Consider `CN(CCCCCC(=O)N(C)CCN1CCC(OC(=O)Nc2ccccc2-c2ccccc2)CC1)Cc1cccc(C(=O)N(C)CCCN(C)C(=O)CO[C@H]2Cc3ccccc3C23CCN(CC[C@@]2(c4ccc(F)cc4)CN(C(=O)c4cc(C(F)(F)F)cc(C(F)(F)F)c4)CO2)CC3)c1` [Example 41, 1-{2-[{6-[{3-[{3-[({[(2S)-1′-{2-[(5R)-3-[3,5-Bis(trifluoromethyl)benzoyl]-5-(4-fluorophenyl)-1,3-oxazolidin-5-yl]ethyl}-2,3-dihydrospiro[indene-1,4′-piperidin]-2-yl]oxy}acetyl)(methyl)amino]propyl}(methyl)carbamoyl]benzyl}(methyl)amino]hexanoyl}(methyl)amino]ethyl}piperidin-4-yl biphenyl-2-ylcarbamate trihydrochloride], for which the results for the inhibition constant Ki at substance P receptor, at human M3 receptor and at human NK2 receptor were 0.96 nM, 1.4 nM and 0.26 nM, respectively.

On to `Cc1nc(N(C)CCCCCC(=O)N(C)CCN2CCC(OC(=O)Nc3ccccc3-c3ccccc3)CC2)sc1C(=O)N(C)CCN(C)C(=O)CO[C@H]1Cc2ccccc2C12CCN(CC[C@@]1(c3ccc(F)cc3)CN(C(=O)c3cc(C(F)(F)F)cc(C(F)(F)F)c3)CO1)CC2` [Example 108, 1-{2-[{6-[{5-[{2-[({[(2S)-1′-{2-[(5R)-3-[3,5-Bis(trifluoromethyl)benzoyl]-5-(4-fluorophenyl)-1,3-oxazolidin-5-yl]ethyl}-2,3-dihydrospiro[indene-1,4′-piperidin]-2-yl]oxy}acetyl)(methyl)amino]ethyl}(methyl)carbamoyl]-4-methyl-1,3-thiazol-2-yl}(methyl)amino]hexanoyl}(methyl)amino]ethyl}piperidin-4-yl biphenyl-2-ylcarbamate trihydrochloride], for which the Ki at substance P receptor worked out at 1.3 nM; at human M3 receptor, 3 nM; on human NK2 receptor, 0.79 nM.
